For nine compounds, MIC and zone of inhibition results are on record in ChEMBL document CHEMBL4002584, “Synthesis and antibacterial activities of novel pleuromutilin derivatives with a substituted pyrimidine moiety” (2017).

One may read the MIC as the least concentration at which growth counts as inhibited. Higher therefore signals a less susceptible organism.

What all share (format): functional
The test system of assay [1] is Staphylococcus aureus. Nature of the assay: Antibacterial activity against […] Staphylococcus aureus ATCC 29213 after 24 to 48 hrs by agar dilution method. A general note: In agar dilution the substance is mixed into plates at graded concentrations.
Assay [2] concerns Staphylococcus aureus. Nature of the assay: Antibacterial activity against […] Staphylococcus aureus ATCC 33591 at 160 ug/ml after 24 to 36 hrs by oxford cup assay. The following applies: read-out: DIZ.
For assay [3], the system named is Bacillus subtilis. In words: Antibacterial activity against Bacillus subtilis CMCC (B) 63501 at 320 ug/ml after 24 to 36 hrs by oxford cup assay. The following applies: read-out: DIZ.
Assay [4] has as its system Staphylococcus aureus. Nature of the assay: Antibacterial activity against […] Staphylococcus aureus ATCC 33591 after 24 to 48 hrs by agar dilution method.
In assay [5] the test system is Staphylococcus aureus. Nature of the assay: Antibacterial activity against […] Staphylococcus aureus ATCC 29213 at 320 ug/ml after 24 to 36 hrs by oxford cup assay. The following applies: read-out: DIZ.
The test system of assay [6] is Staphylococcus aureus. In words: Antibacterial activity against Staphylococcus aureus CMCC (B) 26003 at 160 ug/ml after 24 to 36 hrs by oxford cup assay. The following applies: read-out: DIZ.
In assay [7] the test system is Staphylococcus aureus. Nature of the assay: Antibacterial activity against […] Staphylococcus aureus ATCC 29213 at 160 ug/ml after 24 to 36 hrs by oxford cup assay. The following applies: read-out: DIZ.
The test system of assay [8] is Escherichia coli. In words: Antibacterial activity against Escherichia coli CMCC (B) 44102 at 160 ug/ml after 24 to 36 hrs by oxford cup assay. The following applies: read-out: DIZ.
In assay [9] the test system is Staphylococcus aureus. In words: Antibacterial activity against Staphylococcus aureus CMCC (B) 26003 after 24 to 48 hrs by agar dilution method.
Assay [10] relates to Staphylococcus aureus. Nature of the assay: Antibacterial activity against Staphylococcus aureus CMCC (B) 26003 at 320 ug/ml after 24 to 36 hrs by oxford cup assay. The following applies: read-out: DIZ.
For assay [11], the system named is Bacillus subtilis. In words: Antibacterial activity against Bacillus subtilis CMCC (B) 63501 at 160 ug/ml after 24 to 36 hrs by oxford cup assay. The following applies: read-out: DIZ.
For assay [12], the system named is Staphylococcus aureus. In words: Antibacterial activity against […] Staphylococcus aureus ATCC 33591 at 320 ug/ml after 24 to 36 hrs by oxford cup assay. The following applies: read-out: DIZ.
Assay [13] has as its system Bacillus subtilis. Nature of the assay: Antibacterial activity against Bacillus subtilis CMCC (B) 63501 after 24 to 48 hrs by agar dilution method.
Assay [14] relates to Escherichia coli. In words: Antibacterial activity against Escherichia coli CMCC (B) 44102 at 320 ug/ml after 24 to 36 hrs by oxford cup assay. The following applies: read-out: DIZ.
The test system of assay [15] is Escherichia coli. In words: Antibacterial activity against Escherichia coli CMCC (B) 44102 after 24 to 48 hrs by agar dilution method.

Converted amounts (≈) assume the structure as drawn.

Consider `C=C[C@]1(C)C[C@@H](OC(=O)CSc2nc(N)cc(NC(=O)CN3CCOCC3)n2)[C@]2(C)[C@H](C)CC[C@]3(CCC(=O)[C@H]32)[C@@H](C)[C@@H]1O`, for which the MIC is 0.25 µg/mL (≈ 0.397 µM) in assay [1]; 1 µg/mL (≈ 1.59 µM) in [4]; 0.125 µg/mL (≈ 0.198 µM) in assay [9]; 2 µg/mL (≈ 3.18 µM) in [13]; 4 µg/mL (≈ 6.35 µM) in [15]. Besides, the zone of inhibition at 160 µg/mL worked out at 17.9 mm in assay [2]; 24.7 mm in [6]; 20.2 mm in [7]; 9.82 mm in assay [8]; 14.2 mm in [11]. The zone of inhibition at 320 µg/mL in assay [3] was determined as 19.6 mm; in assay [5], 28 mm; in assay [10], 35.4 mm; in assay [12], 26.8 mm; in assay [14], 11.9 mm.

`C=C[C@]1(C)C[C@@H](OC(=O)CSc2nc(N)cc(NC(=O)CN(CC)CC)n2)[C@]2(C)[C@H](C)CC[C@]3(CCC(=O)[C@H]32)[C@@H](C)[C@@H]1O`: the MIC in [1] worked out at 0.5 µg/mL (≈ 0.812 µM); in assay [4], 0.25 µg/mL (≈ 0.406 µM); in [9], 0.125 µg/mL (≈ 0.203 µM); in assay [13], 4 µg/mL (≈ 6.5 µM); in [15], 8 µg/mL (≈ 13 µM). Besides, the zone of inhibition at 160 µg/mL came to 19.9 mm in assay [2]; 23.6 mm in assay [6]; 16.4 mm in [7]; 10.1 mm in assay [8]; 13.4 mm in [11]. For the same compound, the zone of inhibition at 320 µg/mL in assay [3] was found to be 15.7 mm; in [5] it was 22.3 mm; in [10] it was 34.2 mm; in [12] it was 25.8 mm; in [14], 12 mm.

As for `C=C[C@]1(C)C[C@@H](OC(=O)CSc2nc(N)cc(NC(=O)CN3CCCCC3)n2)[C@]2(C)[C@H](C)CC[C@]3(CCC(=O)[C@H]32)[C@@H](C)[C@@H]1O`, the MIC in [1] amounted to 0.25 µg/mL (≈ 0.398 µM); in assay [4] it was 0.5 µg/mL (≈ 0.796 µM); in assay [9] it was 0.25 µg/mL (≈ 0.398 µM); in assay [13], 4 µg/mL (≈ 6.37 µM); in assay [15] it was 8 µg/mL (≈ 12.7 µM). The zone of inhibition at 160 µg/mL was determined as 17.9 mm in assay [2]; 23 mm in assay [6]; 18.2 mm in assay [7]; 8.89 mm in assay [8]; 15.2 mm in assay [11]. Besides, the zone of inhibition at 320 µg/mL in [3] amounted to 19.6 mm; in assay [5] it was 24.9 mm; in assay [10] it was 30.1 mm; in assay [12], 22.8 mm; in [14], 10.3 mm.

In the case of `C=C[C@]1(C)C[C@@H](OC(=O)CSc2nc(N)cc(NC(=O)CN3CCC[C@@H](CO)C3)n2)[C@]2(C)[C@H](C)CC[C@]3(CCC(=O)[C@H]32)[C@@H](C)[C@@H]1O`, the MIC in [1] came out at 0.125 µg/mL (≈ 0.19 µM); in [4], 0.125 µg/mL (≈ 0.19 µM); in assay [9], 0.0625 µg/mL (≈ 0.095 µM); in assay [13], 1 µg/mL (≈ 1.52 µM); in assay [15], 4 µg/mL (≈ 6.08 µM). Also, the zone of inhibition at 160 µg/mL is 25.8 mm in [2]; 25.9 mm in [6]; 26.5 mm in [7]; 10.3 mm in assay [8]; 17.7 mm in [11]. The zone of inhibition at 320 µg/mL in assay [3] is 22.2 mm; in assay [5] it was 34.4 mm; in assay [10] it was 38.1 mm; in assay [12], 35.1 mm; in assay [14] it was 13.3 mm.

As to `C=C[C@]1(C)C[C@@H](OC(=O)CSc2nc(N)cc(NC(=O)CN3CCC(CCO)CC3)n2)[C@]2(C)[C@H](C)CC[C@]3(CCC(=O)[C@H]32)[C@@H](C)[C@@H]1O`, the MIC in [1] is 1 µg/mL (≈ 1.49 µM); in assay [4], 0.5 µg/mL (≈ 0.744 µM); in assay [9] it was 0.125 µg/mL (≈ 0.186 µM); in [13], 2 µg/mL (≈ 2.98 µM); in [15], 8 µg/mL (≈ 11.9 µM). The zone of inhibition at 160 µg/mL in assay [2] was found to be 21.6 mm; in assay [6], 24 mm; in assay [7], 18.3 mm; in [8] it was 10.6 mm; in assay [11], 15.6 mm. Also, the zone of inhibition at 320 µg/mL in assay [3] was found to be 17.3 mm; in assay [5], 24.9 mm; in [10], 33.6 mm; in assay [12] it was 32.4 mm; in [14], 12.7 mm.

For the compound `C=C[C@]1(C)C[C@@H](OC(=O)CSc2nc(N)cc(NC(=O)CN(C)C)n2)[C@]2(C)[C@H](C)CC[C@]3(CCC(=O)[C@H]32)[C@@H](C)[C@@H]1O`, the MIC in assay [1] turned out to be 1 µg/mL (≈ 1.7 µM); in assay [4] it was 0.5 µg/mL (≈ 0.851 µM); in assay [9], 0.25 µg/mL (≈ 0.425 µM); in assay [13], 4 µg/mL (≈ 6.81 µM); in assay [15], 8 µg/mL (≈ 13.6 µM). Also, the zone of inhibition at 160 µg/mL turned out to be 18 mm in [2]; 21.8 mm in assay [6]; 18.9 mm in assay [7]; 9.55 mm in assay [8]; 13.9 mm in [11]. The zone of inhibition at 320 µg/mL amounted to 17.5 mm in assay [3]; 25.4 mm in assay [5]; 34.2 mm in assay [10]; 22.4 mm in [12]; 12.1 mm in assay [14].

Consider `C=C[C@]1(C)C[C@@H](OC(=O)CSc2nc(N)cc(NC(=O)CN3CC[C@H](O)C3)n2)[C@]2(C)[C@H](C)CC[C@]3(CCC(=O)[C@H]32)[C@@H](C)[C@@H]1O`, for which the MIC in assay [1] was 0.125 µg/mL (≈ 0.198 µM); in assay [4], 0.25 µg/mL (≈ 0.397 µM); in assay [9] it was 0.125 µg/mL (≈ 0.198 µM); in assay [13], 2 µg/mL (≈ 3.18 µM); in [15], 8 µg/mL (≈ 12.7 µM). For the same compound, the zone of inhibition at 160 µg/mL worked out at 22.7 mm in assay [2]; 22.1 mm in assay [6]; 22.1 mm in assay [7]; 8.86 mm in assay [8]; 13.6 mm in [11]. In addition, the zone of inhibition at 320 µg/mL came out at 15.8 mm in assay [3]; 29.6 mm in assay [5]; 32.7 mm in assay [10]; 33.3 mm in assay [12]; 10.5 mm in assay [14].

Regarding `C=C[C@]1(C)C[C@@H](OC(=O)CSc2nc(N)cc(NC(=O)CN3CCC(O)CC3)n2)[C@]2(C)[C@H](C)CC[C@]3(CCC(=O)[C@H]32)[C@@H](C)[C@@H]1O`, the MIC in [1] was found to be 0.25 µg/mL (≈ 0.388 µM); in [4], 0.25 µg/mL (≈ 0.388 µM); in [9], 0.125 µg/mL (≈ 0.194 µM); in assay [13], 2 µg/mL (≈ 3.11 µM); in assay [15], 4 µg/mL (≈ 6.21 µM). The zone of inhibition at 160 µg/mL in assay [2] came to 23.5 mm; in assay [6], 21.1 mm; in [7], 21 mm; in [8], 8.54 mm; in assay [11], 13.6 mm. Also, the zone of inhibition at 320 µg/mL in assay [3] stood at 16.1 mm; in [5] it was 30.5 mm; in assay [10] it was 30.6 mm; in assay [12], 34.4 mm; in assay [14], 11.4 mm.

In the case of `C=C[C@]1(C)C[C@@H](OC(=O)CSc2nc(N)cc(NC(=O)CN3CCCC3)n2)[C@]2(C)[C@H](C)CC[C@]3(CCC(=O)[C@H]32)[C@@H](C)[C@@H]1O`, the MIC in [1] was 0.5 µg/mL (≈ 0.815 µM); in [4] it was 0.5 µg/mL (≈ 0.815 µM); in [9], 0.125 µg/mL (≈ 0.204 µM); in assay [13] it was 2 µg/mL (≈ 3.26 µM); in assay [15], 4 µg/mL (≈ 6.52 µM). Further, the zone of inhibition at 160 µg/mL in assay [2] is 18.3 mm; in assay [6] it was 22.2 mm; in assay [7], 19.2 mm; in assay [8], 10.2 mm; in [11] it was 14.9 mm. Also, the zone of inhibition at 320 µg/mL is 20 mm in [3]; 26.5 mm in assay [5]; 30.4 mm in [10]; 24 mm in [12]; 13.4 mm in assay [14].
